# Values quoted from earlier work, collected in Sander's compilation of Henry's law constants (doi:10.1016/j.chemosphere.2007.04.088).
# Test: Henry solubility constant Hcp at 298.15 K (mol/(m3 Pa))
# Conditions: reference: Warneck (2007); cited value
row,SMILES,Henry solubility constant Hcp
1,"ClCC(Cl)(Cl)Cl [1,1,1,2-tetrachloroethane]",0.0042
2,"CC(Cl)(Cl)Cl [1,1,1-trichloroethane]",0.0006
3,"ClC(Cl)C(Cl)Cl [1,1,2,2-tetrachloroethane]",0.024
4,"ClCC(Cl)Cl [1,1,2-trichloroethane]",0.011
5,"C=C(Cl)Cl [1,1-dichloroethene]",0.00037
6,CCCl [chloroethane],0.00083
7,C=CCl [chloroethene],0.00038
8,ClCCl [dichloromethane],0.0039
9,ClC(Cl)=C(Cl)Cl [tetrachloroethene],0.00062
10,ClC(Cl)(Cl)Cl [tetrachloromethane],0.00036
11,ClC=C(Cl)Cl [trichloroethene],0.0011
